# From the supplement of paper PMC10307832
# Columns and labels:
# Assay in all cases: relative viability (nuclei count vs DMSO), 5 days (fraction); higher = more cells survive
# AZ505 + AZD7762 = compound: C1CCC(CC1)N(CCNCCC2=C3C(=C(C=C2)O)NC(=O)CO3)C(=O)CCNCCC4=CC(=C(C=C4)Cl)Cl [AZ505] + NC(=O)Nc1cc(-c2cccc(F)c2)sc1C(=O)N[C@H]1CCCNC1 [AZD7762] (partner 0.2 µM)
# How it was run: (§1)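 After 5 days of treatment, lung cancer cells in 1536-well plates were fixed and stained in a single step (final 0.05% Triton X-100, 1% formaldehyde, 1 ug/ml Hoechst) and their nuclei counted on 4× images. Treatment had been applied by pin tool the day after seeding as one drug alone or as a fixed anchor-drug dose with five library-drug doses (not always all listed) in √10 steps. Relative viability is the nuclei count of treated wells divided by that of vehicle wells, and values are medians of duplicate plates.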
# AZ505 + Tozasertib = compound: C1CCC(CC1)N(CCNCCC2=C3C(=C(C=C2)O)NC(=O)CO3)C(=O)CCNCCC4=CC(=C(C=C4)Cl)Cl [AZ505] + Cc1cc(Nc2cc(N3CCN(C)CC3)nc(Sc3ccc(NC(=O)C4CC4)cc3)n2)n[nH]1 [Tozasertib] (partner 0.1 µM)
# How it was run: as §1
# AZ505 + Pemetrexed = compound: C1CCC(CC1)N(CCNCCC2=C3C(=C(C=C2)O)NC(=O)CO3)C(=O)CCNCCC4=CC(=C(C=C4)Cl)Cl [AZ505] + Nc1nc2[nH]cc(CCc3ccc(C(=O)N[C@@H](CCC(=O)O)C(=O)O)cc3)c2c(=O)[nH]1 [Pemetrexed] (partner 0.2 µM)
# How it was run: as §1
# Dactolisib + Phenformin = compound: Cn1c(=O)n(-c2ccc(C(C)(C)C#N)cc2)c2c3cc(-c4cnc5ccccc5c4)ccc3ncc21 [Dactolisib] + N=C(N)NC(=N)NCCc1ccccc1 [Phenformin] (partner 250 µM)
# How it was run: as §1
Cell Line,relative viability (AZ505 + AZD7762; first compound 0.08 µM),relative viability (AZ505 + AZD7762; first compound 0.253 µM),relative viability (AZ505 + AZD7762; first compound 0.8 µM),relative viability (AZ505 + AZD7762; first compound 2.53 µM),relative viability (AZ505 + AZD7762; first compound 8 µM),relative viability (AZ505 + Tozasertib; first compound 0.08 µM),relative viability (AZ505 + Tozasertib; first compound 0.253 µM),relative viability (AZ505 + Tozasertib; first compound 0.8 µM),relative viability (AZ505 + Tozasertib; first compound 2.53 µM),relative viability (AZ505 + Tozasertib; first compound 8 µM),relative viability (AZ505 + Pemetrexed; first compound 0.08 µM),relative viability (AZ505 + Pemetrexed; first compound 0.253 µM),relative viability (AZ505 + Pemetrexed; first compound 0.8 µM),relative viability (AZ505 + Pemetrexed; first compound 2.53 µM),relative viability (AZ505 + Pemetrexed; first compound 8 µM),relative viability (Dactolisib + Phenformin; first compound 0.002 µM),relative viability (Dactolisib + Phenformin; first compound 0.006325 µM),relative viability (Dactolisib + Phenformin; first compound 0.02 µM),relative viability (Dactolisib + Phenformin; first compound 0.06325 µM),relative viability (Dactolisib + Phenformin; first compound 0.2 µM)
201T,0.63,0.572,0.688,0.596,0.613,0.896,1.08,0.905,0.943,0.875,0.343,0.342,0.403,0.345,0.31,0.476,0.483,0.446,0.414,0.428
A549,,,,,,,,,,,,,,,,0.183,0.153,0.172,0.103,0.0668
A-427,0.695,0.618,0.705,0.715,0.647,0.211,0.177,0.194,0.187,0.216,0.964,0.961,0.904,0.948,1.01,0.366,0.335,0.348,0.263,0.244
ABC-1,0.637,0.537,0.918,0.825,0.859,0.116,0.185,0.168,0.168,0.167,,,,,,0.246,0.244,0.24,0.231,0.199
BEN,0.594,0.433,0.621,0.758,0.759,0.443,0.545,0.458,0.504,0.426,0.682,0.678,0.871,0.746,0.786,0.231,0.263,0.245,0.248,0.237
CAL-12T,0.62,0.647,0.605,0.575,0.814,0.298,0.426,0.308,0.303,0.302,1.08,1.2,1.26,1.29,1.46,0.672,0.567,0.508,0.236,0.192
COR-L23,,,,,,0.181,0.177,0.22,0.179,0.146,0.185,0.204,0.201,0.185,0.186,0.508,0.417,0.429,0.229,0.159
COR-L 105,,,,,,0.354,0.34,0.341,0.335,0.403,0.979,1.05,1.06,1.1,1.14,0.494,0.489,0.432,0.256,0.259
ChaGo-K-1,0.73,0.836,0.766,0.888,0.886,0.2,0.232,0.244,0.216,0.238,0.26,0.268,0.28,0.252,0.258,0.457,0.457,0.464,0.374,0.444
EKVX,,0.629,0.849,0.678,0.746,0.372,0.354,0.435,0.38,0.378,,0.385,0.384,0.41,0.403,0.26,0.222,0.229,0.225,0.215
EMC-BAC-2,0.957,1.17,1.11,1.14,1.14,0.268,0.323,0.299,0.274,0.275,0.412,0.491,0.417,0.499,0.451,0.51,0.529,0.519,0.336,0.251
EPLC-272H,0.451,0.253,0.433,0.424,0.343,,0.392,0.282,0.316,0.25,0.246,0.318,0.254,0.245,0.232,0.351,0.25,0.268,0.228,0.259
H3255,0.737,0.883,0.906,0.942,0.957,0.639,1.17,0.564,0.503,0.577,0.521,0.556,0.602,0.571,0.616,0.386,0.354,0.388,0.328,0.348
HARA,0.354,,0.33,0.693,0.351,0.165,0.102,0.0957,0.106,0.0964,0.208,,0.213,0.24,0.228,0.467,0.441,0.51,0.405,0.211
HCC-15,0.711,1.24,1.24,1.13,1.42,0.363,0.299,0.36,0.344,0.322,0.209,0.231,0.22,0.218,0.24,0.482,0.488,0.449,0.291,0.184
HCC-44,1,0.964,0.916,1.03,1.02,0.887,0.992,0.922,0.88,1.04,0.683,0.643,0.659,0.638,0.673,0.274,0.203,0.171,,0.166
HCC-78,,,0.75,0.719,0.558,0.351,0.65,0.381,0.312,0.345,,,0.916,0.904,0.918,0.912,0.771,0.63,0.495,0.319
